Measurements: patent publication US20240141414A1, “CELL-FREE BIOSENSORS WITH DNA STRAND DISPLACEMENT CIRCUITS” (Northwestern University, priority 2021, published 2024)

Columns and labels:
Assay type in all cases: biochemical
SmtB = molecular target: T1, SmtB (Synechococcus elongatus, UniProt P30340); assay: SmtB-regulated in vitro transcription with TMSD fluorescence output; details: SmtB-regulated reaction, optimized smtO-Hairpin2-InvadeR design
T1 construct: 6xHis (C); made in house; host or cells: E. coli Rosetta 2(DE3)pLysS, pET-28c plasmid (pJBL725)
T1 sequence (P30340 with tags, fused parts or gaps): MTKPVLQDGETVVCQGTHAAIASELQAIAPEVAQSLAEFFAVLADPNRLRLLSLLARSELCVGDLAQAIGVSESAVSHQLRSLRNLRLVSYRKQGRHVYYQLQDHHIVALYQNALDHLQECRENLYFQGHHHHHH
Description: (§1) In addition to TetR, we chose TtgR [44] and SmtB [45] as representative aTFs of the MarR family and SmtB/ArsR family, respectively. We placed the cognate operator sequence of each aTF 2-bp downstream of the T7 promoter and immediately upstream of the InvadeR sequences (FIG. 4a-c). When tetracycline was used to induce TetR-regulated reactions, we observed a strong and robust fluorescent signal visible in ˜10 minutes (FIG. 4d, FIG. 13a). […] We note that we observed a slight decrease in the induction speed from the TtgR-regulated reactions compared to that of the TetR-regulated reactions, likely due to the reduced ttgO DNA template concentration needed to accommodate TtgR's relatively weak binding affinity to its operator sequence.
We were immediately successful in adapting the system to TetR and TtgR (FIG. 4a, b). […]
(§2) Regulated IVT reactions additionally included a purified aTF at the indicated concentration and were equilibrated at 37° C. for ˜10 minutes. Immediately prior to plate reader measurements, 2 ng of T7 RNAP and, optionally, a ligand at the indicated concentration were added to the reaction. Reactions were then characterized on a plate reader as described in Plate reader quantification and micromolar equivalent fluorescein (MEF) standardization.

TetR = molecular target: T2, TetR (Escherichia coli, UniProt P04483)
T2 construct: made in house; host or cells: E. coli Rosetta 2(DE3)pLysS, pET-28c plasmid (pJBL701)
Source text: Next, we sought to determine whether the transcription of InvadeR can be regulated with an aTF, thus creating a ligand-responsive biosensor that uses TMSD outputs. This required us to insert an aTF operator sequence in between the T7 promotor and InvadeR sequence to allow an aTF to regulate transcription. […] To test if this spacing remained important in the TMSD platform, we used TetR as our model aTF to determine the optimum spacing for efficient repression in the presence of TetR and efficient transcription in the absence of TetR [41]. […] However, robust fluorescence signal was observed without TetR when using a 2-bp spacer, which was reduced to nearly baseline levels when regulated by TetR. […]
Using the 2-bp spacer, we next determined whether TetR can be de-repressed with its cognate ligand, anhydrotetracycline (aTc) to allow transcription of InvadeR (FIG. 3c). […]
as §2

TtgR = molecular target: T3, TtgR (Pseudomonas putida, UniProt Q88N29); assay: TtgR-regulated in vitro transcription with TMSD fluorescence output; details: TtgR-regulated reactions, with and without ligand
T3 construct: made in house; host or cells: E. coli Rosetta 2(DE3)pLysS, pET-28c plasmid (pJBL721)
T3 sequence (Q88N29 other isoform, or with tags, fused parts or gaps): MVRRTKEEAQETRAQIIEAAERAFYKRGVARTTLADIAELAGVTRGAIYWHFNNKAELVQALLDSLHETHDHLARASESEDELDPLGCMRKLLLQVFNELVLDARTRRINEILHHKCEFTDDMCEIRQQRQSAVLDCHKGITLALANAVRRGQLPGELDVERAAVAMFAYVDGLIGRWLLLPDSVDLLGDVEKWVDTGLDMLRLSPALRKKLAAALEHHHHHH
Description: as §1, §2

`O=S(=O)([O-])[O-].[Zn+2]` [ZnSO4] was tested, and the “fluorescence activation by ligand” value (SmtB) was “clear activation of a SmtB-regulated reaction in the presence of ZnSO4 with low background signal”.
For `Cc1c2c(c(O)c3c(O)cccc13)C(=O)[C@]1(O)C(=O)C(C(N)=O)=C(O)[C@@H](N(C)C)[C@@H]1C2` [aTc, anhydrotetracycline], the “time until fluorescence is visible” value (TetR; TetR-regulated InvadeR output induced with the ligand (aTc 10 μM)) was about 10 min and the “speed of fluorescence activation relative to the RNA aptamer platform” value (TetR; equimolar amounts of DNA template, TetR and aTc) was “approximately 5 times”.
With `O=C1C[C@@H](c2ccc(O)cc2)Oc2cc(O)cc(O)c21` [naringenin] the “fluorescence activation by ligand” value (TtgR) was “robust fluorescence activation only in the presence of the ligand”.
